“Also recorded” adds a separate entry of the source. Ends that are not written are not given here.
How the values were obtained:
uPA = test: Genes regulated by E4: uPA; assay type: cell-based, human; details: HuF-T; RT-qPCR, protein expression levels, enzyme activity
Protocol: Several experiments have been performed to identify the mechanisms by which E4 exerts its anti-fibrotic activity. Real-time quantitative PCR (qPCR)-based arrays were performed on RNA extracted from primary human lung fibroblasts or mouse lung tissue stimulated with various fibrotic triggers in the absence and presence of E4 treatment in order to identify genes influenced by the endostatin peptide.
The arrays identified several genes that have been previously implicated in fibrosis to be influenced by E4 treatment. These genes included connective tissue growth factor (CTGF), insulin-like growth factor binding protein (IGFBP)-3, matrix metalloproteases (MMP)-1 and MMP-3, urokinase plasminogen activator (uPA), plasminogen activator inhibitor (PAI)-1, and hepatocyte growth factor (HGF) with levels either decreased or increased in the presence of E4 as shown in TABLE 5.

lysyl oxidase (LOX) [1] = test: LOX immunohistochemistry in lung sections of bleomycin-treated mice; assay type: in vivo, mouse; details: bleomycin with or without E4
From the text: FIG. 12. […] Lung sections of mice treated with BLM with or without E4 were used in immunohistochemistry to detect LOX. The sections shown are control IgG, phosphate buffered saline, bleomycin and bleomycin followed by treatment with E4.

[2] = system: human primary lung fibroblasts; test: Western blot of FN, Col1α1 and α-SMA in primary lung fibroblasts; assay type: cell-based
Protocol: Primary Fibroblast Culture. Human primary lung and skin fibroblasts were cultured. The explanted lungs of normal organ donors, patients with SSc or IPF, and clinically involved skin of SSc patients, a morphea patient and healthy donors were used for primary fibroblast culture. Approximately 2-cm pieces of peripheral lung and skin were minced and fibroblasts were cultured in Dulbecco's modified Eagle's medium (DMEM; Mediatech, Herndon, Va.) supplemented with 10% FBS, penicillin, streptomycin, and anti-mycotic agent, as previously described (Feghali et al., Arthritis Rheum 1999; 42:1451-7). All the cells were used between passages 3-6.
Western Blot Analysis. Cellular lysates were obtained from cultured fibroblasts as previously described (Pilewski et al., Am J Pathol 2005; 166:399-407). Briefly, 2.0×10^5 primary fibroblasts were cultured in 35-mm wells in 0.5% FBS-containing medium supplemented with 10 ng/ml of human recombinant TGF-β or PBS as vehicle control for 24 h, […] In some experiments, endostatin peptides were used without TGF-β stimulation. Cellular lysates were analyzed by Western blot. Signals were detected following incubation with horseradish peroxidase-conjugated secondary antibody and chemiluminescence (Perkin Elmer Life Sciences, Inc., Boston, Mass.). The intensity of individual bands with expected molecular sizes was semi-quantitatively analyzed using the image/J® software available at on the Internet (/rsb.info.nih.gov/ij/index.html), and normalized to individual GAPDH intensity.

lysyl oxidase (LOX) [3] = test: LOX Western blot in conditioned media of primary human lung fibroblasts; assay type: cell-based; details: TGF-β followed 30 min later by E4; 48 h
Protocol: FIG. 13. E4 reduces fibrosis in vitro by blocking TGF-β-induced LOX production in primary human lung fibroblasts. Normal lung fibroblasts in passage 4 were treated with vehicle, E4, TGF-β, or TGF-β followed 30 min. later by E4. Media conditioned by the fibroblasts were analyzed using Western blot analysis after 48 hour. Lane 1: Vehicle (DMSO); Lane 2: E-4; Lane 3: TGF-β; Lane 4: TGF-β followed by E4. Similar results were obtained when LOX mRNA levels were examined by real-time PCR.
E4-mediated reduction of LOX was detected also was detected in vitro. Normal lung fibroblasts in passage 4 were treated with vehicle, E4, TGF-β, or TGF-β followed 30 minutes later by E4 (FIG. 13). Media conditioned by the fibroblasts were analyzed using Western blot analysis after 48 hrs. […] Similar results were obtained when LOX mRNA levels were examined by real-time PCR.

human skin explants = test: Ex vivo human skin assay, dermal thickness; assay type: cell-based
Protocol: Ex vivo human skin assays. Human abdominal skin was obtained from corrective plastic surgery. As previously described (Yasuoka et al., The Open Rheumatol J 2008; 2:17-22), subcutaneous fat tissue was removed uniformly and skin tissue was cut into 1.5 cm×1.5 cm sections. The following were injected intradermally in a total volume of 100 μl 1×PBS: rE alone (1-10 μg/ml), endostatin peptides alone (10 μg/ml), rE or endostatin peptides (1-20 μg/ml) in combination with TGF-β (10 ng/ml), and TGF-β alone (10 ng/ml). In some experiments, human skin was first injected with TGF-β for 48 h followed by recombinant endostatin (rE) administration in the same injection site as TGF-β. Explants containing complete epidermal and dermal layers were cultured in an air liquid interface with the epidermal and keratin layers side up and exposed to air. The culture medium was replaced every other day. After 1 or 2 weeks, skin tissue corresponding to an area with 8-mm diameter centered around the injection site was harvested using disposable 8-mm ACUPUNCH® (Acuderm, Inc., Lauderdale, FL). Skin tissue was fixed in 10% formalin prior to embedding in paraffin.
Measurement of Skin Dermal Thickness. Six μm sections of paraffin-embedded human and mouse skin tissues were stained with hematoxylin and eosin (H&E). In some experiments, sections were stained with Masson trichrome which identifies collagens. Images were taken on a Nikon Eclipse 800 microscope. The thickness of the dermis was measured in 6 random fields of each section using the image/J® software. Data are shown in arbitrary units.

MMP-2 = test: Gelatin zymography of MMP-2 in primary human lung fibroblasts; assay type: cell-based; details: for MMP-2 activity: E-4 following TGF-β
From the text: FIG. 14A-14B. FIG. 14A: E4 reduces fibrosis in vitro by inducing MMP-2 activity in primary human lung fibroblasts, thus resulting in increased degradation of collagen and other matrix proteins. […] Lane 1: Vehicle (DMSO); Lane 2: E-4; Lane 3: TGF-β; Lane 4: TGF-β followed by E4. FIG. 14B: Digital image showing that both total and active MMP-2 levels are increased in cells treated with TGF-β and E-4.

[4] = system: TGF-β-induced dermal fibrosis in mouse skin; details: single dose concurrently with TGF-β; cited from earlier work
[5] = IPF fibroblasts, 5, 10 and 20 μg/ml, vs vehicle control

E4: SEQ ID NO: 21, amino acids 133-180 of human endostatin with a C-terminal amide (SYCETWRTEAPSATGQASSLLGGRLLGQSAASCHHAYIVLCIENSFMT-NH2; cysteine pairing not given here)
Effect of E4 peptide on uPA (uPA): Increase
LOX levels in lung (lysyl oxidase (LOX) [1]): reduces levels; also recorded: reducing levels
Col1α1 levels [2, 5]: dose-dependently reduced
FN levels [2, 5]: modest effect
FN and Col1α1 levels ([2]; fibrotic (IPF) lung fibroblasts, absence of TGF-β stimulation): decreased
FN and Col1α1 levels ([2]; normal human lung fibroblasts, TGF-β 24 h, then 5 μg/ml for 48 h): significantly suppressed
TGF-β-induced α-SMA levels ([2]; normal lung fibroblasts): decreased
TGF-β-induced LOX production (lysyl oxidase (LOX) [3]): significantly reduced; also recorded: blocking
TGF-β-induced skin fibrosis, dose response (human skin explants; concentrations of 5-20 μg/ml with TGF-β): clearly ameliorated
dermal thickness, baseline effect (human skin explants; injected alone, no TGF-β, rE 1, 5, 10 μg/ml, peptides 10 μg/ml): tendency towards reduction
development of fibrosis as measured by dermal thickness (human skin explants; peptides 10 μg/ml with 10 ng/ml TGF-β, vs TGF-β alone): significantly abolished
MMP-2 activity (MMP-2): induction and activation
MMP-2 activity (MMP-2; listed as E-4): increased MMP-2 activity
total and active MMP-2 levels (MMP-2; cells treated with TGF-β and E-4): increased
skin thickness [4]: significantly decreased skin

Source: US11912755B2, “Endostatin fragments and variants for use in treating fibrosis” (iBio, Inc., priority 2015, dated 2024)
